Reference: patent publication US20030005484A1, “Microbiocidal and pesticidal aromatic aldehydes” (ProGuard, Inc., priority 1994, published 2003)
Several values for one entry are separate records, joined by “and”; a condition that tells them apart may be missing. Equal values may be shown once.

Experiments:
aphids = aphids on sprayed roses; assay type: in vivo; conditions: roses sprayed with emulsion of cinnamic aldehyde and sodium bicarbonate, concomitantly saponin
rust = rust (and spores) on roses, disease rating / MPDC after foliar spray; assay type: in vivo, Phragmidrium mucronatrum
Protocol: Each formulation is evaluated for its effect on specific pests and/or plant host using any of the compounds of formula (1) as well as other components of the formulation such as Tween 80 and/or sodium bicarbonate, with the combination and effective amount of each component adapted for a particular application to minimize toxicity while maintaining or increasing the antipathogenic effect of the formulation. The effective amount of each component may be determined by systematically varying the amount of that component in a test formulation, treating a plant of interest with the test formulation, and monitoring the level of pest infestation compared to an untreated control plant. An effective amount of a test component is identified as the amount that controls the growth of the pathogen on the plant host, thus reducing the disease rating of the plant. The mean percentage disease […] (MPDC) can be calculated for each particular application. MPDC is defined by the formula: [formula] Eight cultivars of rose were tested to investigate the effect of a cinnamic aldehyde/NaHCO3 formulation on rust and spores. The cultivars used included Moss unnamed (Moss), […], Rosette Delize (Hybrid Tea), Rosa Rugosa Rubra (Rugosa), Abel Morrison (Hybrid perpetual), John Laing, Betty Prior, and Rose de Roi. […] The Hybrid Tea and Hybrid perpetual were rated 3 and the Rugosa was rated 1. […] Control plants received no treatment. […] Moreover, the treatment appeared to have induced systemic resistance. […] Plants were an average of 0.86 m apart. […] Controls were untreated plants. […] Weekly reviews were made of the various plants. […] Six cultivars of infected rose in dedicated experimental rose gardens were used. Four Mrs. John Laing (Hybrid perpetual) and two Marchionese of Londonderry (Hybrid perpetual) rose plants were treated with one of two formulations of coniferyl aldehyde. […] The first two Mrs. […] Mrs. […] Both Marchionese of Londonderry plants (P5 and P6) were rated 5 for powdery mildew and rust after Paulus and Nelson (supra). Two treatment formulae were used for this trial. […] Control plants were sprayed with water alone. The change in the rating from pre-treatment to post-treatment was calculated as the mean percentage of disease control (MPDC) as described herein.

[1] = tested on: Fusarium subglutinans f. sp. pini; experiment: radial growth on amended potato dextrose agar; assay type: cell-based; conditions: five days at 18° C
Protocol: A double-blind bioassay was undertaken using cinnamic aldehyde in various concentrations and formulations. The bioassay was based on inhibition of radial growth of Fusarium subglutinans f. sp. pini. Eight ml of formulation (concentration unknown) was pipetted into 200 ml of molten 2% potato dextrose agar (PDA) and the mixture was dispersed into five plastic petri dishes (25 ml dish). Each of four plates was inoculated at the center with an agar plug transferred from a growing PDA culture of Fusarium subglutinans f. sp. pini (isolate SL-1, UCB), while the fifth plate was left noninoculated as a control. These steps were repeated for each formulation of the cinnamic aldehyde. As a positive control, four PDA plates amended with 5 ppm benomyl were inoculated. as described; the negative control was four unamended PDA plates that were inoculated with F. subglutinans. All inoculated and non-inoculated plates were incubated at 18° C. for five days, after which colony diameters were measured.

phylloxera-biotype A = experiment: greenhouse Merlot vines infested with phylloxera, leaf spray, disease rating of roots; assay type: in vivo, Daktulosphaira vitifoliae
Source text: For greenhouse tests, one year old potted V. vinifera cultivar merlot plants were used that had been obtained from Foundation Plant Material Service, University of California, Davis. The plants were potted in 10 cm diameter pots and were infested with phylloxera 5 weeks prior to treatment. At the time of spraying with a treatment solution, plant pots were placed in a plastic bag so that chemical runoff from the leaf sprays would not drip into the soil. The plants were sprayed to runoff with a household 1 liter-capacity plastic spray bottle. Plants were allowed to air dry outside and then replaced in the greenhouse. At intervals thereafter, the roots were separated from the potting mix and total phylloxera population estimated.

[2] = potted roses, ~100 ml foliar spray of 5 g cinnamic aldehyde, 80 g NaHCO3, 10 g Tween 80 per 1000 g, weekly saponin, observed 8 weeks

Question: Which results are given for O=C/C=C/c1ccccc1 [cinnamic aldehyde]?
Answer: aphids on treated plants (aphids): remained free of aphids; Mean Percentage of Disease Control (MPDC), rust (rust; field rose Rose de Roi, same single spray, five week trial): 85.0%; rust after a single treatment (rust; [2]): eradicative; spores after a single treatment (rust; [2]): eradicative; Colony diameter (cm) ([1]; 10 ppm CNMA (with saponin: 0.86 ml Yucca extract 10° BRIX)): 4.36 cm; Colony diameter (cm) ([1]; 10 ppm CNMA (with saponin: 0.86 ml Yucca extract 10° BRIX), listed as CNMA): 4.363 cm; Colony diameter (cm) ([1]; 100 ppm CNMA (with saponin: 0.86 ml)): 4.238 cm; Colony diameter (cm) ([1]; 100 ppm CNMA (with saponin: 0.86 ml), listed as PGXL CNMA): 4.24 cm; Colony diameter (cm) ([1]; 2,500 ppm CNMA (with saponin: 0.86 ml)): 3.513 cm; Colony diameter (cm) ([1]; 2,500 ppm CNMA (with saponin: 0.86 ml), listed as PGXL CNMA): 3.51 cm; Colony diameter (cm) ([1]; 5,000 ppm CNMA (with saponin: 0.86 ml)): 2.908 cm; Colony diameter (cm) ([1]; 5,000 ppm CNMA (with saponin: 0.86 ml), listed as PGXL CNMA): 2.91 cm; Colony diameter (cm) ([1]; 12,500 ppm CNMA (with saponin: 0.86 ml)): 0.000 cm; Colony diameter (cm) ([1]; 12,500 ppm CNMA (with saponin: 0.86 ml), listed as PGXL CNMA): 0 cm; Colony diameter (cm) ([1]; 25,000 ppm CNMA (with saponin: 0.86 ml)): 0.000 cm; Colony diameter (cm) ([1]; 25,000 ppm CNMA (with saponin: 0.86 ml), listed as PGXL CNMA): 0 cm; Average disease rating (0-4) (phylloxera-biotype A; CNMA 10,000 ppm in 6% NaHCO3 and 2% Tween-80, leaves to run-off, week 1 (7 day evaluation)): 0^2(3)^3 and 0; Average disease rating (0-4) (phylloxera-biotype A; Experiment 2, 2500 ppm CNMA leaf treatment, 1 day post treatment): 4 (3); Average disease rating (0-4) (phylloxera-biotype A; Experiment 2, 2500 ppm CNMA leaf treatment, 2 days post treatment): 0.3(3); Average disease rating (0-4) (phylloxera-biotype A; Experiment 2, 2500 ppm CNMA leaf treatment, 7 days post treatment): 0.3(3); insects on roots after leaf spray (phylloxera-biotype A; one-year-old greenhouse Merlot vines sprayed to run-off, after two weeks): disappeared
